Structures can show the parent of a compound that is named as a salt.
System: Bacteriophage Phi X174 (ATCC 13706-81)
Test: Virucidal infectivity (percent reduction in virus infectivity, E. coli outgrowth with resazurin dye);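 note: exposed phage diluted into broth, E. coli outgrowth followed 16-24 h at 37 °C by fluorescence rate, unexposed phage set as 100% signal, phage-free as 0%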
Conditions: 10-minute exposure
[1] = secondary agent 3 mM + Maleic Acid 3 mM
[2] = secondary agent 3 mM + Phosphonc Acid 50-150 mM
[3] = secondary agent 3 mM + Sulfosuccinic Acid 10-32 mM

Protocol: Bacteriophage Phi X174 (ATCC 13706-81) was added 1:10 (−108 plaque forming units (PFU) per sample) into a solution containing the composition of interest. Following a 10-minute exposure, the sample was transferred 1:10 into Tryptic Soy Broth (TSB). Following 10 minutes in TSB, a second 1:10 dilution was completed into an outgrowth solution for the Phi X174 host (E. coli ATCC 13706) that contained TSB and a resazurin dye. E. coli outgrowth was then monitored at 37° C. for 16-24 hours and the rate of fluorescence development was calculated. The rate observed when Phi X174 was not exposed to any composition represented a 100% Phi X174 signal. The rate observed without Phi X174 present represented a “0% signal.” The rate obtained following Phi X174 exposure to a given composition was compared to the signal obtained with no exposure to calculate the “percent reduction in virus infectivity.”

N=C(N)NN [Aminoguanidine Hydrochloride]
% Reduction, Secondary Antiviral Agent Alone (agent alone 6 mM): 2% | % Reduction, Secondary Antiviral Agent Alone (agent alone 18 mM): 7% | % Reduction, Secondary Antiviral Agent Alone (agent alone 53 mM): 4% | % Reduction, Secondary Antiviral Agent Alone (agent alone 158 mM): 1% | reduction in virus infectivity, in Combination with Maleic Acid (3 mM) [1]: 12% | reduction in virus infectivity, in Combination with Phosphonc Acid (50-150 mM) [2]: 50% | reduction in virus infectivity, in Combination with Sulfosuccinic Acid (10-32 mM) [3]: 0% | reduction in virus infectivity, in Combination with Maleic Acid (3 mM) (secondary agent 9 mM + Maleic Acid 3 mM): 4% | reduction in virus infectivity, in Combination with Phosphonc Acid (50-150 mM) (secondary agent 9 mM + Phosphonc Acid 50-150 mM): 86% | reduction in virus infectivity, in Combination with Sulfosuccinic Acid (10-32 mM) (secondary agent 9 mM + Sulfosuccinic Acid 10-32 mM): 0% | reduction in virus infectivity, in Combination with Maleic Acid (3 mM) (secondary agent 28 mM + Maleic Acid 3 mM): 0% | reduction in virus infectivity, in Combination with Phosphonc Acid (50-150 mM) (secondary agent 28 mM + Phosphonc Acid 50-150 mM): 50% | reduction in virus infectivity, in Combination with Sulfosuccinic Acid (10-32 mM) (secondary agent 28 mM + Sulfosuccinic Acid 10-32 mM): 4% | reduction in virus infectivity, in Combination with Maleic Acid (3 mM) (secondary agent 85 mM + Maleic Acid 3 mM): 0% | reduction in virus infectivity, in Combination with Phosphonc Acid (50-150 mM) (secondary agent 85 mM + Phosphonc Acid 50-150 mM): 99% | reduction in virus infectivity, in Combination with Sulfosuccinic Acid (10-32 mM) (secondary agent 85 mM + Sulfosuccinic Acid 10-32 mM): 13%

[Cl][Cu][Cl] [Copper (II) Chionde]
% Reduction, Secondary Antiviral Agent Alone (agent alone 1 mM): 20% | % Reduction, Secondary Antiviral Agent Alone (agent alone 4 mM): 18% | % Reduction, Secondary Antiviral Agent Alone (agent alone 9 mM): 23% | % Reduction, Secondary Antiviral Agent Alone (agent alone 27 mM): 99% | reduction in virus infectivity, in Combination with Maleic Acid (3 mM) (secondary agent 26 mM + Maleic Acid 3 mM): 70% | reduction in virus infectivity, in Combination with Phosphonc Acid (50-150 mM) (secondary agent 26 mM + Phosphonc Acid 50-150 mM): 99% | reduction in virus infectivity, in Combination with Sulfosuccinic Acid (10-32 mM) (secondary agent 26 mM + Sulfosuccinic Acid 10-32 mM): 99% | reduction in virus infectivity, in Combination with Maleic Acid (3 mM) (secondary agent 1-3 mM + Maleic Acid 3 mM): 72% | reduction in virus infectivity, in Combination with Phosphonc Acid (50-150 mM) (secondary agent 1-3 mM + Phosphonc Acid 50-150 mM): 44% | reduction in virus infectivity, in Combination with Sulfosuccinic Acid (10-32 mM) (secondary agent 1-3 mM + Sulfosuccinic Acid 10-32 mM): 94% | reduction in virus infectivity, in Combination with Maleic Acid (3 mM) (secondary agent 4-6 mM + Maleic Acid 3 mM): 57% | reduction in virus infectivity, in Combination with Phosphonc Acid (50-150 mM) (secondary agent 4-6 mM + Phosphonc Acid 50-150 mM): 87% | reduction in virus infectivity, in Combination with Sulfosuccinic Acid (10-32 mM) (secondary agent 4-6 mM + Sulfosuccinic Acid 10-32 mM): 96% | reduction in virus infectivity, in Combination with Maleic Acid (3 mM) (secondary agent 11-13 mM + Maleic Acid 3 mM): 38% | reduction in virus infectivity, in Combination with Phosphonc Acid (50-150 mM) (secondary agent 11-13 mM + Phosphonc Acid 50-150 mM): 80% | reduction in virus infectivity, in Combination with Sulfosuccinic Acid (10-32 mM) (secondary agent 11-13 mM + Sulfosuccinic Acid 10-32 mM): 99%

CCCCCCCCCCO[C@@H]1O[C@H](CO)[C@@H](O)[C@H](O)[C@H]1O [EcoSense 3000, Decyl Glucoside]
% Reduction, Secondary Antiviral Agent Alone (agent alone 8 mM): 14% | % Reduction, Secondary Antiviral Agent Alone (agent alone 23 mM): 0% | % Reduction, Secondary Antiviral Agent Alone (agent alone 69 mM): 0% | % Reduction, Secondary Antiviral Agent Alone (agent alone 207 mM): 0% | reduction in virus infectivity, in Combination with Maleic Acid (3 mM) (secondary agent 0.3 mM + Maleic Acid 3 mM): 0% | reduction in virus infectivity, in Combination with Maleic Acid (3 mM) (secondary agent 1 mM + Maleic Acid 3 mM): 0% | reduction in virus infectivity, in Combination with Maleic Acid (3 mM) (secondary agent 7 mM + Maleic Acid 3 mM): 0% | reduction in virus infectivity, in Combination with Maleic Acid (3 mM) (secondary agent 37 mM + Maleic Acid 3 mM): 0%

N=C(N)N [Guanidine Hydrochloride]
% Reduction, Secondary Antiviral Agent Alone (agent alone 6 mM): 0% | % Reduction, Secondary Antiviral Agent Alone (agent alone 18 mM): 0% | % Reduction, Secondary Antiviral Agent Alone (agent alone 55 mM): 0% | % Reduction, Secondary Antiviral Agent Alone (agent alone 164 mM): 0% | reduction in virus infectivity, in Combination with Maleic Acid (3 mM) [1]: 0% | reduction in virus infectivity, in Combination with Phosphonc Acid (50-150 mM) [2]: 40% | reduction in virus infectivity, in Combination with Sulfosuccinic Acid (10-32 mM) [3]: 10% | reduction in virus infectivity, in Combination with Maleic Acid (3 mM) (secondary agent 10 mM + Maleic Acid 3 mM): 0% | reduction in virus infectivity, in Combination with Phosphonc Acid (50-150 mM) (secondary agent 10 mM + Phosphonc Acid 50-150 mM): 34% | reduction in virus infectivity, in Combination with Sulfosuccinic Acid (10-32 mM) (secondary agent 10 mM + Sulfosuccinic Acid 10-32 mM): 12% | reduction in virus infectivity, in Combination with Maleic Acid (3 mM) (secondary agent 29 mM + Maleic Acid 3 mM): 0% | reduction in virus infectivity, in Combination with Phosphonc Acid (50-150 mM) (secondary agent 29 mM + Phosphonc Acid 50-150 mM): 34% | reduction in virus infectivity, in Combination with Sulfosuccinic Acid (10-32 mM) (secondary agent 29 mM + Sulfosuccinic Acid 10-32 mM): 1% | reduction in virus infectivity, in Combination with Maleic Acid (3 mM) (secondary agent 86 mM + Maleic Acid 3 mM): 0% | reduction in virus infectivity, in Combination with Phosphonc Acid (50-150 mM) (secondary agent 86 mM + Phosphonc Acid 50-150 mM): 46% | reduction in virus infectivity, in Combination with Sulfosuccinic Acid (10-32 mM) (secondary agent 86 mM + Sulfosuccinic Acid 10-32 mM): 0%

CCCCCCCC/C=C\CCCCCCCC(=O)N(C)CCS(=O)(=O)[O-].[Na+] [Hostapon TPHC, Sodium Methyl Oleoyl Taurate]
% Reduction, Secondary Antiviral Agent Alone (agent alone 25 mM): 0% | % Reduction, Secondary Antiviral Agent Alone (agent alone 42 mM): 0% | % Reduction, Secondary Antiviral Agent Alone (agent alone 50 mM): 0% | % Reduction, Secondary Antiviral Agent Alone (agent alone 67 mM): 0% | reduction in virus infectivity, in Combination with Maleic Acid (3 mM) (secondary agent 25 mM + Maleic Acid 3 mM): 0% | reduction in virus infectivity, in Combination with Phosphonc Acid (50-150 mM) (secondary agent 25 mM + Phosphonc Acid 50-150 mM): 99% | reduction in virus infectivity, in Combination with Sulfosuccinic Acid (10-32 mM) (secondary agent 25 mM + Sulfosuccinic Acid 10-32 mM): 99% | reduction in virus infectivity, in Combination with Maleic Acid (3 mM) (secondary agent 42 mM + Maleic Acid 3 mM): 0% | reduction in virus infectivity, in Combination with Phosphonc Acid (50-150 mM) (secondary agent 42 mM + Phosphonc Acid 50-150 mM): 96% | reduction in virus infectivity, in Combination with Sulfosuccinic Acid (10-32 mM) (secondary agent 42 mM + Sulfosuccinic Acid 10-32 mM): 88% | reduction in virus infectivity, in Combination with Maleic Acid (3 mM) (secondary agent 50 mM + Maleic Acid 3 mM): 0% | reduction in virus infectivity, in Combination with Phosphonc Acid (50-150 mM) (secondary agent 50 mM + Phosphonc Acid 50-150 mM): 99% | reduction in virus infectivity, in Combination with Sulfosuccinic Acid (10-32 mM) (secondary agent 50 mM + Sulfosuccinic Acid 10-32 mM): 50% | reduction in virus infectivity, in Combination with Maleic Acid (3 mM) (secondary agent 67 mM + Maleic Acid 3 mM): 0% | reduction in virus infectivity, in Combination with Phosphonc Acid (50-150 mM) (secondary agent 67 mM + Phosphonc Acid 50-150 mM): 99% | reduction in virus infectivity, in Combination with Sulfosuccinic Acid (10-32 mM) (secondary agent 67 mM + Sulfosuccinic Acid 10-32 mM): 1%

CCCCCCCCCC[N+](C)(C)[O-] [Mackamine C-10, Decylamina oxide]
% Reduction, Secondary Antiviral Agent Alone (agent alone 6 mM): 7% | % Reduction, Secondary Antiviral Agent Alone (agent alone 18 mM): 4% | % Reduction, Secondary Antiviral Agent Alone (agent alone 53 mM): 11% | % Reduction, Secondary Antiviral Agent Alone (agent alone 183 mM): 30% | reduction in virus infectivity, in Combination with Maleic Acid (3 mM) (secondary agent 30 mM + Maleic Acid 3 mM): 10% | reduction in virus infectivity, in Combination with Phosphonc Acid (50-150 mM) (secondary agent 30 mM + Phosphonc Acid 50-150 mM): 0% | reduction in virus infectivity, in Combination with Sulfosuccinic Acid (10-32 mM) (secondary agent 30 mM + Sulfosuccinic Acid 10-32 mM): 6% | reduction in virus infectivity, in Combination with Maleic Acid (3 mM) (secondary agent 49 mM + Maleic Acid 3 mM): 35% | reduction in virus infectivity, in Combination with Phosphonc Acid (50-150 mM) (secondary agent 49 mM + Phosphonc Acid 50-150 mM): 0% | reduction in virus infectivity, in Combination with Sulfosuccinic Acid (10-32 mM) (secondary agent 49 mM + Sulfosuccinic Acid 10-32 mM): 0% | reduction in virus infectivity, in Combination with Maleic Acid (3 mM) (secondary agent 59 mM + Maleic Acid 3 mM): 64% | reduction in virus infectivity, in Combination with Phosphonc Acid (50-150 mM) (secondary agent 59 mM + Phosphonc Acid 50-150 mM): 0% | reduction in virus infectivity, in Combination with Sulfosuccinic Acid (10-32 mM) (secondary agent 59 mM + Sulfosuccinic Acid 10-32 mM): 2% | reduction in virus infectivity, in Combination with Maleic Acid (3 mM) (secondary agent 79 mM + Maleic Acid 3 mM): 62% | reduction in virus infectivity, in Combination with Phosphonc Acid (50-150 mM) (secondary agent 79 mM + Phosphonc Acid 50-150 mM): 0% | reduction in virus infectivity, in Combination with Sulfosuccinic Acid (10-32 mM) (secondary agent 79 mM + Sulfosuccinic Acid 10-32 mM): 0%

O=C(O)/C=C\C(=O)O [Maleic Acid]
reduction in virus infectivity, Primary Antiviral Agent without secondary agent (None) (Maleic Acid 3 mM, no secondary agent): 1-8%

Reference: patent publication US12728177B2, “Disinfectant composition with rapid antiviral efficacy” (priority 2015, dated 2026)
